# Results reported in patent US12534762B2, “Treating atopic dermatitis by targeting the WNT pathway” (Children's Medical Center Corporation, priority 2018, dated 2026).
# Tested on: Xenopus embryos
# Test: Dorso-animal morpholino injection, phenotype scored at stage 35
# Assay type: in vivo, Xenopus laevis
# Settings: FIG. 6 Panel D
# Experimental: Xenopus embryo manipulations. Procedures for embryo manipulation, reverse transcription PCR and in situ hybridization were performed as previously described (Zhang et al., 2012, Cell, 149:1565-1577). The full length Xenopus laevis Tmem79 cDNA was used to make in situ sense and antisense probes.
# mRNA and Morpholino injection. For animal cap assays, indicated mRNAs (Tmem79, 100 and 200 pg; Xwnt8, 10 pg; β-catenin 50 pg; Xnr1, 250 pg; BMP4, 100 pg) were injected into the animal pole at 4-cell stage, and animal caps were dissected at stage 9 (in the case of Xwnt8, Xnr1, BMP4) or at stage 8.5 and treated with recombinant proteins (bFGF, 100 ng/ml; hShh, 1.5 ng/mL) until stage 10 before RT-PCR. For Neural induction assay the MO (20 ng) for Tmem79, Usp8 or β-catenin was injected into the animal pole at 4-cell stage, and animal caps were dissected at stage 9 and treated with recombinant protein Noggin (500 ng/mL) until stage 18 before RT-PCR. To examine Tmem79 and Usp8 MOs specificity, […] of mRNA of Xenopus Tmem79, mouse Tmem79, Xenopus Usp8 or xmutUsp8 (Xenopus Usp8 mutated for mismatches with the MO) were injected with a control MO, Tmem79 MO or Usp8 MO (20 ng) into the animal pole at the 2-cell stage and cultured til stage 10 for Western blotting. To knockdown the endogenous xTmem79 or xUsp8, 20 ng of control MO, Tmem79 MO or Usp8 MO were injected into two dorso-animal blastomeres at the 8-cell stage and the phenotype was scored at stage 35. To rescue the Tmem79 MO phenotype, […] of mTmem 79, 20 ng of Usp8 MO or 10 ng of β-catenin MO was injected together with Tmem79 MO (20 ng). RT-PCR primers and Morpholinos. RT-PCT primer for Xenopus laevis Tmem 79: Forward, 5′-[…]-3′ (SEQ ID NO: 22); Reverse, 5′-[…]-3′ (SEQ ID NO: 23). The MO sequences: Tmem79.S MO, 5′-[…]-3′ (SEQ ID NO: 24); Tmem79.L MO, 5′-[…]-3′ (SEQ ID NO: 25); Usp8 MO, 5′-[…]-3′ ((SEQ ID NO: 26; Gene Tools, LLC). Phylogeny analysis and protein sequences. TMEM79 protein sequences were derived from full-length NCBI accessions and genomic sequences. Human (Homo sapiens): NP_115699.1 (SEQ ID NO: 27), Chimpanzee (Pan troglodytes): XP_001165258.1 (SEQ ID NO: 28), Rat (Rattus norvegicus): NP_001029068.1 (SEQ ID NO: 29), Mouse (Mus musculus): NP_077208.1 (SEQ ID NO: 30), Chicken (Gallus gallus): XP_024999333.1 (SEQ ID NO: 31), Frog (Xenopus laevis): XP_018089022.1 (SEQ ID NO: 32), Zebra fish (Danio rerio): XP_009290676.1 (SEQ ID NO: 33) and Coelacanth (Latimeria chalumnae): XP_014351966.1 (SEQ ID NO: 34). The Protein sequences encoded by mouse MAPEG family (Membrane-Associated Proteins in Eicosanoid and Glutathione metabolism, pfam01124) members protein sequences were derived from full-length NCBI accessions and genomic sequences. […]
substance,measurement,setting,value
"Usp8 MO: morpholino against Xenopus Usp8, SEQ ID NO: 26 (antisense GCTGCAAATTCTCCTCTCTTATCAA; all phosphorodiamidate morpholino (PMO); listed as Xenopus laevis)",Enlarged Head,,93.2 % of embryos
same,Moderate Deficiency,anterior deficiency,0.0 % of embryos
same,Severe Deficiency,anterior deficiency,0.0 % of embryos
same,Normal,dorso-animal injection,6.8 % of embryos
